Assays:
[1] = system: femoral artery; experiment: Vasodilator activity, femoral artery (technique of perfused paw); type: in vivo; design: key: O: no action; +: slight activity; ++: effect equal to half the effect of papaverine; +++: effect equal to that of papaverine; ++++: effect higher than that of papaverine; conditions: intra-arterial, 30 mg/kg, anaesthetized dog, vs papaverine at same dose
Protocol: (3) The vasodilator activity was measured at the level of femoral artery on anaesthetized dog (technique of perfused paw). The tested substances were given intra-arterially at the rate of 30 mg/kg. Results are expressed with respect to papaverine tested at the same dose.
++: effect equal to half the effect of papaverine.
+++: effect equal to that of papaverine.
++++: effect higher than that of papaverine.

[2] = system: unanaesthetized, hypertension-suffering rat; experiment: Antihypertensive activity (systolic arterial pressure), oral; type: in vivo; conditions: 60 mg/kg, hypertensive rat, 3 hours
Protocol: (2) The antihypertensive activity was measured on unanaesthetized, hypertension-suffering rat. The tested substances were orally given at a rate of 60 mg/kg. The systolic arterial pressure was measured every 30 minutes for 2 hours before and for 3 hours after the tested product was given. Results are expressed as follows: […]
O: no reduction of arterial pressure.
+: reduction lower than 10 mm Hg.
++: reduction of 10 to 20 mm Hg.
+++: reduction higher than 20 mm Hg.

[3] = Acute toxicity, oral, LD50 (Litchfield and Wilcoxon); conditions: mouse, in vivo, fasted male mice, confidence limits p=95% in brackets
Protocol: (1) The acute toxicity was determined on fasted male mice. The tested substances were orally administered and LD50 values (lethal dose for 50% of animals) were calculated according to the method of Litchfield and Wilcoxon (J. Pharmacol. exp. Ther. 96, 94-113, 1949). These LD50 values are given in mg/kg and also, when possible, with their confidence limits for p=95%.

[4] = system: guinea-pig ileum (histamine contractions); experiment: Antispasmodic activity in vitro, contractions caused by histamine; conditions: added 15 minutes before spasm-producing agent
Protocol: (§1) (4) The antispasmodic activity was measured in vitro, on guinea-pig ileum, the contractions of which were caused by histammne (Hist.), acetylcholine (Achol) or barium chloride (BaCl2). The tested products were added to perfusion bath 15 minutes before the spasm-producing agents.
(§2) The dose is given in micograms (μg) per ml of bath causing complete spasm inhibition.

[5] = system: guinea-pig ileum (acetylcholine contractions); experiment: Antispasmodic activity in vitro, contractions caused by acetylcholine; conditions: added 15 minutes before spasm-producing agent
Protocol: as §1, §2

CC(NCCOc1ccc(Cl)cc1)C(O)c1ccc2c(c1)CCC2 (stereo not drawn) [No 169]
VASODILATOR ACTIVITY [1]: +++ | ANTIHYPERTENSIVE ACTIVITY [2]: +++ (reduction higher than 20 mm Hg) | LD50 [3]: > 4000 mg/kg | ANTISPASMODIC ACTIVITY HIST. (dose causing complete spasm inhibition) [4]: 3.3 μg per ml | ANTISPASMODIC ACTIVITY ACHOL (dose causing complete spasm inhibition) [5]: 0.8 μg per ml

CC1CSc2ccc(C(O)C(C)NCCCCc3ccccc3)cc21 (stereo not drawn) [No 109]
VASODILATOR ACTIVITY [1]: +++ | ANTIHYPERTENSIVE ACTIVITY [2]: +++ (reduction higher than 20 mm Hg) | LD50 [3]: ~2750 mg/kg | ANTISPASMODIC ACTIVITY HIST. (dose causing complete spasm inhibition) [4]: 0.17 μg per ml | ANTISPASMODIC ACTIVITY ACHOL (dose causing complete spasm inhibition) [5]: 0.8 μg per ml

CC(C)C(=O)OC(c1ccc2c(c1)CCS2)C(C)NCCCCc1ccccc1 (stereo not drawn) [No 117]
VASODILATOR ACTIVITY [1]: ++++ | ANTIHYPERTENSIVE ACTIVITY [2]: +++ (reduction higher than 20 mm Hg) | LD50 [3]: 2200 mg/kg | ANTISPASMODIC ACTIVITY HIST. (dose causing complete spasm inhibition) [4]: 1.7 μg per ml | ANTISPASMODIC ACTIVITY ACHOL (dose causing complete spasm inhibition) [5]: 0.8 μg per ml

CCC(NCCCCc1ccccc1)C(O)c1ccc2c(c1)CCS2 (stereo not drawn) [No 115]
VASODILATOR ACTIVITY [1]: +++ | ANTIHYPERTENSIVE ACTIVITY [2]: +++ (reduction higher than 20 mm Hg) | LD50 [3]: ~2500 mg/kg | ANTISPASMODIC ACTIVITY HIST. (dose causing complete spasm inhibition) [4]: 0.8 μg per ml | ANTISPASMODIC ACTIVITY ACHOL (dose causing complete spasm inhibition) [5]: 1.7 μg per ml

CC(NCCOc1ccccc1)C(O)c1ccc2c(c1)CCS2 (stereo not drawn) [No 47]
VASODILATOR ACTIVITY [1]: ++ ++ | ANTIHYPERTENSIVE ACTIVITY [2]: ++ (reduction of 10 to 20 mm Hg) | LD50 [3]: > 4000 mg/kg | ANTISPASMODIC ACTIVITY HIST. (dose causing complete spasm inhibition) [4]: 1.7 μg per ml | ANTISPASMODIC ACTIVITY ACHOL (dose causing complete spasm inhibition) [5]: 1.7 μg per ml

CC1CSc2ccc(C(O)C(C)NCCCCc3ccccc3)cc2C1 (stereo not drawn) [No 45]
VASODILATOR ACTIVITY [1]: +++ | ANTIHYPERTENSIVE ACTIVITY [2]: + (reduction lower than 10 mm Hg) | LD50 [3]: > 4000 mg/kg | ANTISPASMODIC ACTIVITY HIST. (dose causing complete spasm inhibition) [4]: 0.8 μg per ml | ANTISPASMODIC ACTIVITY ACHOL (dose causing complete spasm inhibition) [5]: 0.8 μg per ml

CC(NCCCCc1ccc(Cl)cc1)C(O)c1ccc2c(c1)CCS2 (stereo not drawn) [No 29]
VASODILATOR ACTIVITY [1]: ++ | ANTIHYPERTENSIVE ACTIVITY [2]: +++ (reduction higher than 20 mm Hg) | LD50 [3]: 1750 mg/kg | ANTISPASMODIC ACTIVITY HIST. (dose causing complete spasm inhibition) [4]: 1.7 μg per ml | ANTISPASMODIC ACTIVITY ACHOL (dose causing complete spasm inhibition) [5]: 1.7 μg per ml

CCCCCCCCNC(C)C(O)c1ccc2c(c1)CC(C)O2 (stereo not drawn) [No 55]
VASODILATOR ACTIVITY [1]: +++ | ANTIHYPERTENSIVE ACTIVITY [2]: +++ (reduction higher than 20 mm Hg) | LD50 [3]: 350 mg/kg | ANTISPASMODIC ACTIVITY HIST. (dose causing complete spasm inhibition) [4]: 3.3 μg per ml | ANTISPASMODIC ACTIVITY ACHOL (dose causing complete spasm inhibition) [5]: 8.3 μg per ml

CC1Cc2cc(C(O)C(C)NCCOc3ccccc3)ccc2S1 (stereo not drawn) [No 61]
VASODILATOR ACTIVITY [1]: ++ | ANTIHYPERTENSIVE ACTIVITY [2]: +++ (reduction higher than 20 mm Hg) | LD50 [3]: ~4000 mg/kg | ANTISPASMODIC ACTIVITY HIST. (dose causing complete spasm inhibition) [4]: 3.3 μg per ml | ANTISPASMODIC ACTIVITY ACHOL (dose causing complete spasm inhibition) [5]: 3.3 μg per ml

CC1Cc2cc(C(O)C(C)NCCCCc3ccc(Cl)cc3)ccc2S1 (stereo not drawn) [No 68]
VASODILATOR ACTIVITY [1]: +++ | ANTIHYPERTENSIVE ACTIVITY [2]: +++ (reduction higher than 20 mm Hg) | LD50 [3]: < 500 mg/kg | ANTISPASMODIC ACTIVITY HIST. (dose causing complete spasm inhibition) [4]: 3.3 μg per ml | ANTISPASMODIC ACTIVITY ACHOL (dose causing complete spasm inhibition) [5]: 0.8 μg per ml

CC1CSc2ccc(C(O)C(C)NCCOc3ccccc3)cc2C1 (stereo not drawn) [No 49]
VASODILATOR ACTIVITY [1]: +++ | ANTIHYPERTENSIVE ACTIVITY [2]: +++ (reduction higher than 20 mm Hg) | LD50 [3]: ~3700 mg/kg | ANTISPASMODIC ACTIVITY HIST. (dose causing complete spasm inhibition) [4]: 3.3 μg per ml | ANTISPASMODIC ACTIVITY ACHOL (dose causing complete spasm inhibition) [5]: 1.7 μg per ml

CCCCSCCCNC(C)C(O)c1ccc2c(c1)CCCS2 (stereo not drawn) [No 80]
VASODILATOR ACTIVITY [1]: ++ | ANTIHYPERTENSIVE ACTIVITY [2]: +++ (reduction higher than 20 mm Hg) | LD50 [3]: 5000 mg/kg | ANTISPASMODIC ACTIVITY HIST. (dose causing complete spasm inhibition) [4]: 0.8 μg per ml | ANTISPASMODIC ACTIVITY ACHOL (dose causing complete spasm inhibition) [5]: 1.7 μg per ml

Reference: US4638070A, “Heterocyclic amino-alcohol derivatives” (Continental Pharma, priority 1980, dated 1987)
